The record followed here is patent publication US11485762B2, “Compositions and methods for inhibition of L-plastin activity in osteoclasts to reduce bone loss” (University of Maryland, Baltimore, priority 2017, dated 2022).

For one test, the system named is endogenous LPL. Briefly: Phosphorylation of endogenous (cellular) LPL in osteoclasts (LPL immunoprecipitation, p-Serine immunoblot). It counts as cell-based, mouse. As to conditions: sNT-LPL peptides, 3-4 hours, bone particles and TNF-α. Here is the method:
Bone particles (60-80 μm in size) were prepared as described previously (Ma et at, 2010, J. Biol. Chem., 285: 29911-29924). After flushing the marrow cells for osteoclast differentiation as described above, long bones of mice (free of cells inside and muscles outside) were washed extensively with PBS and kept in ethanol until use. Long bones were air-dried in the hood and homogenized by a mini blender. Bone particles were sieved and used for experiments. Multinucleated osteoclasts were seen from day four onward. At this time cultures were added with bone particles (100 μg/ml media) for 3-4 hours or 12-14 hours in the presence of TNF-α (20 ng/ml). Some cultures were treated with 3-5 μg/ml TNFR1 antibody. Osteoclasts were preincubated with the TNFR1 antibody for 60-90 minutes before the addition of TNF-α to enhance the blocking effect. Osteoclasts incubated with bone particles for 3-4 or 12-14 hours in the presence of TNF-α were used for lysate preparations.
The vector pTAT-HA has an N-terminal 6-histidine leader (Nagahara et al., 1998, Nature Medicine, 4:1449-1452). […] For transduction with TAT-fused peptides (100-150 nM), osteoclasts were first kept in serum-free α-MEM for two hours. Afterward, TAT proteins of interest, bone particles, and TNF-α were added to cells in serum-free α-MEM Lysates were made from these cells for immunoprecipitation and immunoblotting analyses. Osteoclasts plated on dentine slices in the presence of TAT-proteins of interest and TNF-α for 3-6 hours or 12-14 hours were used for immunostaining or actin staining analyses. Osteoclast cultures treated only with TNF-α were used as controls.
Following various treatments, osteoclasts were washed three-times with cold PBS and lysed in a radioimmune precipitation buffer (RIPA; 10 mM Tris-HCl, pH 7.2, 150 mM NaCl, 1% deoxycholate, 1% Triton X-100, 0.1% SDS, 1% aprotinin, 2 mM PMSF, […], and 1% aprotinin). Cells were rocked on ice for 15 minutes and scraped off with a cell scraper. Cell lysates were centrifuged at 15,000 rpm for 5 minutes at 4° C., and the supernatant was saved. Protein contents were measured using Bio-Rad protein assay reagent. Equal amounts of lysate proteins (100-150 μg) were used for immunoprecipitations. Immunoprecipitations and Western blotting were done as described previously (Chellaiah et al., 1998, J. Biol. Chem., 273: 11908-11916; Chellaiah et al., 1996, Mol. Biol. Cell, 7: 743-753).
After cells were kept in the serum-free α-MEM medium for two hours, LPL peptides of interest were added to a final concentration of 100-150 nM to cells in serum-free media (Chellaiah et al, 2000, J. Biol. Chem., 275: 11993-12002). Osteoclasts transduced with peptides of interest and added with bone particles in the presence of TNF-α for 3-4 hours or 12-14 hours were used for lysate preparations. Cells plated on coverslips and treated with peptides were used for actin staining to detect podosomes. After transduction for 30 min., osteoclasts were re-plated on dentine slices with respective LPL peptide and TNF-α for 3-6 hours or 12-14 hours. These cells were used for Actin staining with rhodamine-phalloidin or immunostaining analyses (Chellaiah et al., 2000, J. Biol. Chem., 275: 11993-12002; Chellaiah et al., 2000, J. Cell. Biol., 148: 665-678; Chellaiah et al., 2003, J Biol Chem 278: 29086-29097).
Following various treatments, osteoclasts were washed three times with cold PBS and lysed in a Triton-containing lysis buffer as described (Chellaiah et al., 1996, Mol. Biol. Cell, 7: 743-753). Cells were rocked on ice for 15 minutes, and scraped off with a cell scraper. Cell lysates were centrifuged at 15,000 rpm for 5 minutes, at 4° C., and the supernatant was saved. Protein contents were measured using Bio-Rad protein assay reagent. Osteoclast cultures were also subjected to a trypan blue dye (Sigma T8154) exclusion test to determine the viability of osteoclasts after various treatments. […]

The test system of a further test is osteoclasts. Description: F-actin content by rhodamine phalloidin binding. It counts as cell-based, mouse. As to conditions: sNT-LPL peptides; compared with P2, P5, and P6. Here is the method: For the measurement of F-actin, osteoclasts transduced with TAT-LPL peptides of interest for 15 to 30 minutes were re-plated on dentine slices for 3 to 4 hours or 10-12 hours, respectively, in the presence of indicated TAT-fused peptides of interest and TNF-α. For each treatment four to six wells in 24 well, culture dishes were used. Cells were fixed and rhodamine phalloidin binding to F-actin was done as described (Chellaiah et al., 2000, J. Cell Biol., 148: 665-678; Chellaiah et al., 2000, J. Biol. Chem., 275: 11993-12002: Chellaiah et at, 2007, J. Biol. Chem., 282: 10104-10116),
Osteoclasts were transduced with LPL and control peptides. For each treatment four to six wells in 24 well culture dishes were used. Cells were fixed and rhodamine phalloidin binding to F-actin was done as described (Chellaiah et al., 1998, J. Biol. Chem., 273: 11908-11916; Chellaiah et al., 1996, Mol. Biol. Cell, 7: 743-753).

As to “MARGAVSDEE [Peptide P3, TAT-fused sNT-LPL peptide, Ser-5 substituted with Ala (A5S7)]”, the “inhibitory effect on the phosphorylation of cellular LPL” value with endogenous LPL is listed as “varied inhibitory effects”. The F-actin level entry with osteoclasts is on record as “decreased”.

For the sequence “MARGSVADEE [Peptide P4, TAT-fused sNT-LPL peptide, Ser-7 substituted with Ala (S5A7)]”, in the test with endogenous LPL, the “inhibitory effect on the phosphorylation of cellular LPL” value is reported as “varied inhibitory effects”. Further, in the test on osteoclasts, the F-actin level entry is “decreased”.
